According to patent publication US7501430B2 (ArQule, Inc., priority 2006, dated 2009):
Where two headings read alike, the source gives them in different places.

Biological target: T1, mutant B-RAF (Homo sapiens, UniProt P15056, V600E)
T1 construct: purchased Upstate (Charlottesville, Va.)
Assay: RAF biochemical assay (MEK-1 phosphorylation, anti-phospho MEK1/2 detection)
Details: for inhibition at 10 µM: read-out: Mutant B-RAF % inhibition
Method in brief: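 Detection is by ELISA: after a 30 min room-temperature reaction, plate-captured GST-MEK-1 is probed with anti-phospho MEK1/2, then an AP-tagged secondary antibody with fluorescent Attophos read-out.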

T1 sequence (P15056 whole entry V600E): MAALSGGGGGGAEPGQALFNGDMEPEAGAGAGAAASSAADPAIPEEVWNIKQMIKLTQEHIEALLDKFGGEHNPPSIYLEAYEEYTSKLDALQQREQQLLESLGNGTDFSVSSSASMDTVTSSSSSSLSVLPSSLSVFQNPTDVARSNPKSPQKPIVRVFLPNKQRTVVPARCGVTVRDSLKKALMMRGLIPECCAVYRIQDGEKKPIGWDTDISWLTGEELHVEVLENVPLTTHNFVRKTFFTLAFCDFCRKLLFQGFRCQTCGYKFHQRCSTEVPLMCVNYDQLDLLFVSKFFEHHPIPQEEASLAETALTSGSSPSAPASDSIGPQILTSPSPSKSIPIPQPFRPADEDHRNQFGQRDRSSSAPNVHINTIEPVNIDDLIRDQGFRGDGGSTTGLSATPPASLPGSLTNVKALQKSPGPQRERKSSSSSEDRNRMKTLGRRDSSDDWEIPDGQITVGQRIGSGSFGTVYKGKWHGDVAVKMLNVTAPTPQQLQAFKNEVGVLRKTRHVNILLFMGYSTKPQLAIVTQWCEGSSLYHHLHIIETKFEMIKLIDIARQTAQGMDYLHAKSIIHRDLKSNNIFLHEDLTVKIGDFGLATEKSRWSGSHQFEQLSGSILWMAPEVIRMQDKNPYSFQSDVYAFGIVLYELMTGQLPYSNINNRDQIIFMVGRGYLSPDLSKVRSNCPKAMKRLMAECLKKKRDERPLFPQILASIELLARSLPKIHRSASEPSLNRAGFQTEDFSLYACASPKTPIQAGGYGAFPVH

| Structure (SMILES) | IC50 (read-out: Mutant B-RAF IC50) [nM] | also measured |
| --- | --- | --- |
| O=C(NC1CCCCC1)N1CCC(Nc2nccc(-c3c(-c4ccc(F)cc4)nc4occn34)n2)CC1 [Example 167, N-cyclohexyl-4-({4-[6-(4-fluorophenyl)imidazo[2,1-b][1,3]oxazol-5-yl]pyrimidin-2-yl}amino)piperidine-1-carboxamide] | 4710 |  |
| CCCCNC(=O)N1CCC(Nc2nccc(-c3c(-c4ccc(F)cc4)nc4occn34)n2)CC1 [Example 168, N-butyl-4-({4-[6-(4-fluorophenyl)imidazo[2,1-b][1,3]oxazol-5-yl]pyrimidin-2-yl}amino)piperidine-1-carboxamide] | 1110 |  |
| O=C(NCCc1ccccc1)N1CCC(Nc2nccc(-c3c(-c4ccc(F)cc4)nc4occn34)n2)CC1 [Example 169, 4-({4-[6-(4-fluorophenyl)imidazo[2,1-b][1,3]oxazol-5-yl]pyrimidin-2-yl}amino)-N-(2-phenylethyl)piperidine-1-carboxamide] | 266 |  |
| O=C(NCc1ccccc1)N1CCC(Nc2nccc(-c3c(-c4ccc(F)cc4)nc4occn34)n2)CC1 [Example 170, N-benzyl-4-({4-[6-(4-fluorophenyl)imidazo[2,1-b][1,3]oxazol-5-yl]pyrimidin-2-yl}amino)piperidine-1-carboxamide] | 189 |  |
| O=C(Nc1ccccc1)N1CCC(Nc2nccc(-c3c(-c4ccc(F)cc4)nc4occn34)n2)CC1 [Example 171, 4-({4-[6-(4-fluorophenyl)imidazo[2,1-b][1,3]oxazol-5-yl]pyrimidin-2-yl}amino)-N-phenylpiperidine-1-carboxamide] | 4730 |  |
| Cc1ccc(NC(=O)N2CCC(Nc3nccc(-c4c(-c5ccc(F)cc5)nc5occn45)n3)CC2)cc1 [Example 172, 4-({4-[6-(4-fluorophenyl)imidazo[2,1-b][1,3]oxazol-5-yl]pyrimidin-2-yl}amino)-N-(4-methylphenyl)piperidine-1-carboxamide] | 1980 |  |
| COc1ccc(NC(=O)N2CCC(Nc3nccc(-c4c(-c5ccc(F)cc5)nc5occn45)n3)CC2)cc1 [Example 173, 4-({4-[6-(4-fluorophenyl)imidazo[2,1-b][1,3]oxazol-5-yl]pyrimidin-2-yl}amino)-N-(4-methoxyphenyl)piperidine-1-carboxamide] | 2560 |  |
| O=C(Nc1ccc(F)cc1)N1CCC(Nc2nccc(-c3c(-c4ccc(F)cc4)nc4occn34)n2)CC1 [Example 174, N-(4-fluorophenyl)-4-({4-[6-(4-fluorophenyl)imidazo[2,1-b][1,3]oxazol-5-yl]pyrimidin-2-yl}amino)piperidine-1-carboxamide] | 4730 |  |
| CN(C)c1ccc(NC(=O)N2CCC(Nc3nccc(-c4c(-c5ccc(F)cc5)nc5occn45)n3)CC2)cc1 [Example 175, N-[4-(dimethylamino)phenyl]-4-({4-[6-(4-fluorophenyl)imidazo[2,1-b][1,3]oxazol-5-yl]pyrimidin-2-yl}amino)piperidine-1-carboxamide] | 66 |  |
| O=C(NCc1ccco1)N1CCC(Nc2nccc(-c3c(-c4ccc(F)cc4)nc4occn34)n2)CC1 [Example 176, 4-({4-[6-(4-fluorophenyl)imidazo[2,1-b][1,3]oxazol-5-yl]pyrimidin-2-yl}amino)-N-(2-furylmethyl)piperidine-1-carboxamide] | 82 |  |
| O=C(NC1CCCCO1)N1CCC(Nc2nccc(-c3c(-c4ccc(F)cc4)nc4occn34)n2)CC1 (stereo not shown) [Example 177, 4-({4-[6-(4-fluorophenyl)imidazo[2,1-b][1,3]oxazol-5-yl]pyrimidin-2-yl}amino)-N-(tetrahydro-2H-pyran-2-yl)piperidine-1-carboxamide] | 354 |  |
| Cc1noc(C)c1NC(=O)N1CCC(Nc2nccc(-c3c(-c4ccc(F)cc4)nc4occn34)n2)CC1 [Example 178, N-(3,5-dimethylisoxazol-4-yl)-4-({4-[6-(4-fluorophenyl)imidazo[2,1-b][1,3]oxazol-5-yl]pyrimidin-2-yl}amino)piperidine-1-carboxamide] |  | inhibition at 10 µM: 19% |
| O=C(Cc1ccc(F)cc1)N1CCC(Nc2nccc(-c3c(-c4ccc(F)cc4)nc4occn34)n2)CC1 [Example 179, N-{1-[(4-fluorophenyl)acetyl]piperidin-4-yl}-4-[6-(4-fluorophenyl)imidazo[2,1-b][1,3]oxazol-5-yl]pyrimidin-2-amine] |  | inhibition at 10 µM: 29% |
| CC(C)CC(=O)N1CCC(Nc2nccc(-c3c(-c4ccc(F)cc4)nc4occn34)n2)CC1 [Example 180, 4-[6-(4-fluorophenyl)imidazo[2,1-b][1,3]oxazol-5-yl]-N-[1-(3-methylbutanoyl)piperidin-4-yl]pyrimidin-2-amine] | 2040 |  |
| O=C(c1ccc(F)cc1)N1CCC(Nc2nccc(-c3c(-c4ccc(F)cc4)nc4occn34)n2)CC1 [Example 181, N-[1-(4-fluorobenzoyl)piperidin-4-yl]-4-[6-(4-fluorophenyl)imidazo[2,1-b][1,3]oxazol-5-yl]pyrimidin-2-amine] | 2700 |  |
| O=C(Nc1ccc(C(F)(F)F)cc1)N1CCC(Nc2nccc(-c3c(-c4ccc(F)cc4)nc4occn34)n2)CC1 [Example 182, 4-({4-[6-(4-fluorophenyl)imidazo[2,1-b][1,3]oxazol-5-yl]pyrimidin-2-yl}amino)-N-[4-(trifluoromethyl)phenyl]piperidine-1-carboxamide] |  | inhibition at 10 µM: 45% |

| Structure (SMILES) | IC50 (read-out: Mutant B-RAF IC50) [nM] | also measured |
| --- | --- | --- |
| O=C(NCC1CCCCC1)N1CCC(Nc2nccc(-c3c(-c4ccc(F)cc4)nc4occn34)n2)CC1 [Example 183, N-(cyclohexylmethyl)-4-({4-[6-(4-fluorophenyl)imidazo[2,1-b][1,3]oxazol-5-yl]pyrimidin-2-yl}amino)piperidine-1-carboxamide] | 3610 |  |
| O=C(NCCc1ccc(F)cc1)N1CCC(Nc2nccc(-c3c(-c4ccc(F)cc4)nc4occn34)n2)CC1 [Example 184, N-[2-(4-fluorophenyl)ethyl]-4-({4-[6-(4-fluorophenyl)imidazo[2,1-b][1,3]oxazol-5-yl]pyrimidin-2-yl}amino)piperidine-1-carboxamide] | 1280 |  |
| CC(C)(C)NC(=O)N1CCC(Nc2nccc(-c3c(-c4ccc(F)cc4)nc4occn34)n2)CC1 [Example 185, N-(tert-butyl)-4-({4-[6-(4-fluorophenyl)imidazo[2,1-b][1,3]oxazol-5-yl]pyrimidin-2-yl}amino)piperidine-1-carboxamide] | 1580 |  |
| Cc1cc(NC(=O)N2CCC(Nc3nccc(-c4c(-c5ccc(F)cc5)nc5occn45)n3)CC2)c(C(F)(F)F)o1 [Example 186, 4-({4-[6-(4-fluorophenyl)imidazo[2,1-b][1,3]oxazol-5-yl]pyrimidin-2-yl}amino)-N-[5-methyl-2-(trifluoromethyl)-3-furyl]piperidine-1-carboxamide] |  | inhibition at 10 µM: 16% |
| O=C(Nc1ccccc1F)N1CCC(Nc2nccc(-c3c(-c4ccc(F)cc4)nc4occn34)n2)CC1 [Example 187, N-(2-fluorophenyl)-4-({4-[6-(4-fluorophenyl)imidazo[2,1-b][1,3]oxazol-5-yl]pyrimidin-2-yl}amino)piperidine-1-carboxamide] |  | inhibition at 10 µM: 10% |
| CCC(=O)N1CCC(Nc2nccc(-c3c(-c4ccc(F)cc4)nc4occn34)n2)CC1 [Example 188, 4-[6-(4-fluorophenyl)imidazo[2,1-b][1,3]oxazol-5-yl]-N-(1-propionylpiperidin-4-yl)pyrimidin-2-amine] | 1500 |  |
| O=C(CCc1ccccc1)N1CCC(Nc2nccc(-c3c(-c4ccc(F)cc4)nc4occn34)n2)CC1 [Example 189, 4-[6-(4-fluorophenyl)imidazo[2,1-b][1,3]oxazol-5-yl]-N-[1-(3-phenylpropanoyl)piperidin-4-yl]pyrimidin-2-amine] | 1940 |  |
| NCC(=O)N1CCC(Nc2nccc(-c3c(-c4ccc(F)cc4)nc4occn34)n2)CC1 [Example 190, N-[1-(aminoacetyl)piperidin-4-yl]-4-[6-(4-fluorophenyl)imidazo[2,1-b][1,3]oxazol-5-yl]pyrimidin-2-amine] | 1150 |  |
| CC(C)(N)C(=O)N1CCC(Nc2nccc(-c3c(-c4ccc(F)cc4)nc4occn34)n2)CC1 [Example 191, N-[1-(2-amino-2-methylpropanoyl)piperidin-4-yl]-4-[6-(4-fluorophenyl)imi-dazo[2,1-b][1,3]oxazol-5-yl]pyrimidin-2-amine] |  | IC50: 3760 nM |
| O=C([C@@H]1CCCN1)N1CCC(Nc2nccc(-c3c(-c4ccc(F)cc4)nc4occn34)n2)CC1 [Example 192, 4-[6-(4-fluorophenyl)imidazo[2,1-b][1,3]oxazol-5-yl]-N-(1-L-prolylpiperidin-4-yl)pyrimidin-2-amine] | 1450 |  |
| O=C(Nc1ccc(F)c(F)c1)N1CCC(Nc2nccc(-c3c(-c4ccc(F)cc4)nc4occn34)n2)CC1 [Example 193, N-(3,4-difluorophenyl)-4-({4-[6-(4-fluorophenyl)imidazo[2,1-b][1,3]oxazol-5-yl]pyrimidin-2-yl}amino)piperidine-1-carboxamide] | 1230 |  |
| O=C(NCc1ccc(F)cc1)N1CCC(Nc2nccc(-c3c(-c4ccc(F)cc4)nc4occn34)n2)CC1 [Example 194, N-(4-fluorobenzyl)-4-({4-[6-(4-fluorophenyl)imidazo[2,1-b][1,3]oxazol-5-yl]pyrimidin-2-yl}amino)piperidine-1-carboxamide] |  | inhibition at 10 µM: 55% |
| C[C@H](NC(=O)N1CCC(Nc2nccc(-c3c(-c4ccc(F)cc4)nc4occn34)n2)CC1)c1ccccc1 [Example 195, 4-({4-[6-(4-fluorophenyl)imidazo[2,1-b][1,3]oxazol-5-yl]pyrimidin-2-yl}amino)-N-[(1S)-1-phenylethyl]piperidine-1-carboxamide] |  | inhibition at 10 µM: 56% |
| N[C@@H](CCC(=O)O)C(=O)N1CCC(Nc2nccc(-c3c(-c4ccc(F)cc4)nc4occn34)n2)CC1 [Example 196, (4S)-4-amino-5-[4-({4-[6-(4-fluorophenyl)imidazo[2,1-b][1,3]oxazol-5-yl]pyrimidin-2-yl}amino)piperidin-1-yl]-5-oxopentanoic acid] | 3320 |  |
| O=S(=O)(c1ccccc1)N1CCC(Nc2nccc(-c3c(-c4ccc(F)cc4)nc4occn34)n2)CC1 [Example 197, 4-[6-(4-fluorophenyl)imidazo[2,1-b][1,3]oxazol-5-yl]-N-[1-(phenylsulfonyl)piperidin-4-yl]pyrimidin-2-amine] | 168 |  |
